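Where inhibition never reached the appropriate level, the endpoint shown equals the highest concentration tested. Otherwise, values were interpolated linearly from a five-concentration, 48-hour dose response in 96-well plates. GI50 is the concentration that inhibits growth by half.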 Calls of active or inactive are those of the source. Rule as the data show it: active = GI50 up to about 1.1 µM and inactive = higher.
Legend:
Test in all cases: NCI tumour cell line growth inhibition, 48 h
Malme-3M = test system: Malme-3M
ACHN = test system: ACHN
NCI-H23 = test system: NCI-H23
HCT-116 = test system: HCT-116
OVCAR-8 = test system: OVCAR-8
SF-268 = test system: SF-268
SN12C = test system: SN12C
HL-60 = test system: HL-60
IGROV-1 = test system: IGROV-1
CAKI-1 = test system: CAKI-1
A549 = test system: A549
SK-MEL-28 = test system: SK-MEL-28
U-251 = test system: U-251
RXF 393 = test system: RXF 393
NCI-H460 = test system: NCI-H460
786-0 = test system: 786-0
SNB-19 = test system: SNB-19
CCRF-CEM = test system: CCRF-CEM
PC-3 = test system: PC-3
MDA-MB-231 = test system: MDA-MB-231

| Compound | GI50 (Malme-3M) | GI50 (ACHN) | GI50 (NCI-H23) | GI50 (HCT-116) | GI50 (OVCAR-8) | GI50 (SF-268) | GI50 (SN12C) | GI50 (HL-60) | GI50 (IGROV-1) | GI50 (CAKI-1) | GI50 (A549) | GI50 (SK-MEL-28) | GI50 (U-251) | GI50 (RXF 393) | GI50 (NCI-H460) | GI50 (786-0) | GI50 (SNB-19) | GI50 (CCRF-CEM) | GI50 (PC-3) | GI50 (MDA-MB-231) |
| --- | --- | --- | --- | --- | --- | --- | --- | --- | --- | --- | --- | --- | --- | --- | --- | --- | --- | --- | --- | --- |
| ClC1CCC2OOC1O2 (stereo not given) | > 100 µM (inactive) | > 100 µM (inactive) | > 100 µM (inactive) | 61.1 µM (inactive) | > 100 µM (inactive) | > 100 µM (inactive) | > 100 µM (inactive) | 32.2 µM (inactive) | > 100 µM (inactive) | > 100 µM (inactive) | > 100 µM (inactive) | > 100 µM (inactive) | > 100 µM (inactive) | > 100 µM (inactive) | > 100 µM (inactive) | > 100 µM (inactive) | > 100 µM (inactive) | 54 µM (inactive) | – | – |
| COc1cccc2c1C(=O)c1c(O)c3c(c(O)c1C2=O)C[C@@](O)(C(C)=O)CC3S(=O)(=O)O (stereo not given in full) | > 100 µM (inactive) | > 100 µM (inactive) | > 100 µM (inactive) | > 100 µM (inactive) | > 100 µM (inactive) | > 100 µM (inactive) | > 100 µM (inactive) | > 100 µM (inactive) | > 100 µM (inactive) | > 100 µM (inactive) | > 100 µM (inactive) | > 100 µM (inactive) | > 100 µM (inactive) | > 100 µM (inactive) | > 100 µM (inactive) | > 100 µM (inactive) | > 100 µM (inactive) | > 100 µM (inactive) | – | – |
| COC(=O)/C=C/c1cnc2c(c1)oc(=O)n2CCc1ccccn1 | > 100 µM (inactive) | > 100 µM (inactive) | > 100 µM (inactive) | > 100 µM (inactive) | – | > 100 µM (inactive) | > 100 µM (inactive) | 1.35 µM (inactive) | > 100 µM (inactive) | – | > 100 µM (inactive) | > 100 µM (inactive) | > 100 µM (inactive) | – | > 100 µM (inactive) | > 100 µM (inactive) | > 100 µM (inactive) | 31.6 µM (inactive) | 90.2 µM (inactive) | > 100 µM (inactive) |
| O=C(/C=C/c1cccs1)c1ccc(C(=O)/C=C/c2cccs2)cc1 | > 100 µM (inactive) | > 100 µM (inactive) | > 100 µM (inactive) | – | > 100 µM (inactive) | > 100 µM (inactive) | > 100 µM (inactive) | – | > 100 µM (inactive) | > 100 µM (inactive) | > 100 µM (inactive) | > 100 µM (inactive) | > 100 µM (inactive) | – | > 100 µM (inactive) | > 100 µM (inactive) | > 100 µM (inactive) | – | > 100 µM (inactive) | > 100 µM (inactive) |
| CO[C@@]12C[C@@H](C)C3=CCC(C)=C3CC1=C(C)C(=O)O2 | > 100 µM (inactive) | > 100 µM (inactive) | > 100 µM (inactive) | > 100 µM (inactive) | > 100 µM (inactive) | > 100 µM (inactive) | – | 50.8 µM (inactive) | > 100 µM (inactive) | > 100 µM (inactive) | – | > 100 µM (inactive) | > 100 µM (inactive) | – | > 100 µM (inactive) | > 100 µM (inactive) | > 100 µM (inactive) | 50.8 µM (inactive) | 85.7 µM (inactive) | > 100 µM (inactive) |
| CCC1(O)C[C@H]2CN(CCCc3c([nH]c4ccccc34)[C@@](C(=O)OC)(c3cc4c(cc3OC)N(C)C3[C@](O)(C(=O)OC)[C@H](OC(C)=O)[C@]5(CC)C=CCN6CC[C@]43[C@H]65)C2)C1 (stereo not given in full) | 0.977 µM (active) | > 2.92 µM (inactive) | 0.743 µM (active) | 0.855 µM (active) | 2.96 µM (inactive) | 1.01 µM (active) | 3.61 µM (inactive) | 0.621 µM (active) | 2.88 µM (inactive) | 2.33 µM (inactive) | 1.46 µM (inactive) | 3.56 µM (inactive) | 0.565 µM (active) | 0.834 µM (active) | 0.557 µM (active) | 0.589 µM (active) | 1.77 µM (inactive) | 0.453 µM (active) | – | – |
| CC(C)c1cccc2sc(NC(=O)C(=O)C(C#N)c3cccc4ccccc34)nc12 (stereo not given) | 73.3 µM (inactive) | 69.8 µM (inactive) | 61.5 µM (inactive) | 76.9 µM (inactive) | 72.1 µM (inactive) | > 100 µM (inactive) | > 100 µM (inactive) | 30.5 µM (inactive) | 77.6 µM (inactive) | 30.5 µM (inactive) | 80.7 µM (inactive) | > 100 µM (inactive) | 57.5 µM (inactive) | 25.2 µM (inactive) | > 100 µM (inactive) | > 100 µM (inactive) | > 100 µM (inactive) | 41.8 µM (inactive) | – | – |
| CC(=O)On1c(-c2ccccc2-c2nc3ccccc3n2OC(C)=O)nc2ccccc21 | 15.1 µM (inactive) | 61.8 µM (inactive) | 7.48 µM (inactive) | 25 µM (inactive) | 36.5 µM (inactive) | 23 µM (inactive) | 39.6 µM (inactive) | 14.7 µM (inactive) | 22.1 µM (inactive) | > 100 µM (inactive) | 41.3 µM (inactive) | 29.3 µM (inactive) | 12.8 µM (inactive) | – | – | 46.6 µM (inactive) | 60.5 µM (inactive) | 41.3 µM (inactive) | 4.43 µM (inactive) | 42.8 µM (inactive) |
| CC(C)c1cccc(C(C)C)c1NC(=O)C(=O)C1CCC2=C(Sc3ccccc3N2)C1=O (stereo not given) | > 100 µM (inactive) | > 100 µM (inactive) | 31.6 µM (inactive) | 48.9 µM (inactive) | 38.7 µM (inactive) | > 100 µM (inactive) | 28.8 µM (inactive) | 74.1 µM (inactive) | > 100 µM (inactive) | 64.4 µM (inactive) | > 100 µM (inactive) | > 100 µM (inactive) | 34.8 µM (inactive) | > 100 µM (inactive) | > 100 µM (inactive) | 65.2 µM (inactive) | > 100 µM (inactive) | 24 µM (inactive) | – | – |
| CC1C(c2ccc(N(C)C)cc2)c2cc3c(cc2OC1N1CCCC1)OCO3 (stereo not given) | 40.7 µM (inactive) | > 72.9 µM (inactive) | 58.3 µM (inactive) | 36.4 µM (inactive) | 70.3 µM (inactive) | 66.8 µM (inactive) | 63.1 µM (inactive) | 28 µM (inactive) | > 65.8 µM (inactive) | 38.5 µM (inactive) | 45.3 µM (inactive) | > 72.8 µM (inactive) | 34 µM (inactive) | 22.9 µM (inactive) | 34.5 µM (inactive) | 43 µM (inactive) | 48.3 µM (inactive) | 36 µM (inactive) | 37.3 µM (inactive) | – |
| C1=CN2C[n+]3ccc4ccccc4c3N=C2c2ccccc21 | 0.632 µM (active) | 23.3 µM (inactive) | 2.76 µM (inactive) | 2.82 µM (inactive) | 4.59 µM (inactive) | 2.54 µM (inactive) | 2.47 µM (inactive) | 2.52 µM (inactive) | 3.74 µM (inactive) | 15 µM (inactive) | 1.75 µM (inactive) | – | 0.356 µM (active) | – | 3.54 µM (inactive) | 2.88 µM (inactive) | 2.11 µM (inactive) | 3.3 µM (inactive) | 8.2 µM (inactive) | 6.08 µM (inactive) |
